Molecules are shown by their SMILES.

This note sets out measurements from a melting point compilation (Tetko et al.; mined from patent text by program, amines drawn as free bases though some values may be those of a salt).

`COc1cc(COCCc2cccc(NS(=O)(=O)C(F)(F)F)c2)ccc1-c1ccc(Cl)cc1` yielded a melting point of 88 to 90 °C.

`ClCCCOc1ccc2ccccc2c1` had a melting point of 46 to 49 °C.

`O=C1Nc2cc(NC(=O)c3c[nH]cc(-c4ccc(F)cc4)c3=O)c(F)cc2/C1=C/c1ccc[nH]1` came in with a melting point of more than 300 °C.

Take `OC1CCN(c2cc(-c3ccccc3)nc(-c3ccccc3)n2)CC1`: the melting point lay in the range of 158 to 160 °C.

The compound `O=C1C(c2ccccc2)=C(c2ccccc2Cl)C(=O)N1c1ccc(Cl)cc1` displayed a melting point of 46 °C.

`O=C(CCCN1CCC2(CC1)SC(c1ccc(Cl)cc1)c1ccccc12)c1ccc(F)cc1F` (stereo not given): the melting point was 98 to 100 °C.

Turning to `Cc1c(/C=C/C(=O)c2cn(C)c3ccccc23)ncn1C(c1ccccc1)(c1ccccc1)c1ccccc1`, the melting point was in the range of 216 to 219 °C.

For `O=C(O)C1=Cc2cc(-c3ccc(F)cc3)ccc2CC1`, the melting point was in the range of 213 to 214 °C.

The compound `N#CCCNC(=O)c1cccc(-c2cccc(Oc3cccc(Cl)c3)n2)c1` gave a melting point of 139 to 140 °C.

`CC1(C)CNS(=O)(=O)N1` had a melting point of 80 to 83 °C.

Compound `Nc1ccccc1C(=O)NC1CCN(CCCOc2ccc3c4c(c(=O)oc3c2)CCC4)CC1` gave a melting point of 269 to 270 °C.

Take `CC(C)(C)c1nc(-c2ccc3c(c2)OCO3)[nH]c1C(C)(C)C`: the melting point is 175 to 178 °C.

`Cc1ccc(-c2cc3c(s2)CCCCC3=O)cc1` came in with a melting point of 82 to 84 °C.

In the case of `O=C1C(c2ccccc2)=C(c2ccccc2)C(=O)N1Cc1ccccc1F`, the melting point is 113 to 114 °C.

As for `COc1ccccc1C(=O)COc1cccc(NC(=O)c2ccccn2)c1`, the melting point was in the range of 136 to 137 °C.

Regarding `CC(Nc1nc(NN)nc(Cl)c1-c1c(F)cccc1Cl)C(F)(F)F` (stereo not given), the melting point was in the range of 120 to 122 °C.

Compound `CC(C)[C@H](C/C=C/C[C@H](C(=O)N1C(=O)OC[C@@H]1Cc1ccccc1)C(C)C)C(=O)N1C(=O)OC[C@@H]1Cc1ccccc1` had a melting point of 108 to 109 °C.

For the compound `CC(C)(C)c1ncc(O)c(Cl)n1`, the melting point stood at 108 °C.

For `CNC(=O)Nc1ccc2c(c1Cl)C(c1ccccc1F)=NCC(=O)N2C`, the melting point fell in the range of 145 to 160 °C.

`COCc1ncccc1CN(CCn1ccc2occc2c1=O)Cc1ccc2c(c1)NC(=O)C(C)(C)C(=O)N2CC(C)C` came in with a melting point of 149 to 151 °C.

The compound `CC(C)(O)COc1c(-c2ccc(S(N)(=O)=O)cc2)cnn(-c2ccc(F)c(F)c2)c1=O` had a melting point of 65 to 69 °C.

`COc1cc(Nc2nccc(-c3cccc4ccccc34)n2)cc(OC)c1OC`: the melting point fell in the range of 130 to 133 °C.

With `CC1(C)C(=O)Oc2ccc3cc(C#N)c(C(n4cncn4)n4cncn4)cc3c21`, the melting point lay in the range of 240 to 242 °C.

The compound `Cc1nc(CCO)c2n1-c1ccc(Cl)cc1C(c1ccccc1Cl)=NC2` registered a melting point of 170 to 171 °C.

For the compound `CCN1C(=O)CCC(C)(C)c2ccc(Nc3ncc(Cl)c(Nc4c(F)cccc4OCC#N)n3)cc21`, the melting point was 235 to 238 °C.

As to `CCn1cc(Nc2nc(Br)cn(C)c2=O)cn1`, the melting point lay in the range of 138 to 140 °C.

As for `CC(=O)NC[C@H]1CN(c2cc(F)c(N3CCC(n4nnnc4CS(C)(=O)=O)CC3)c(F)c2)C(=O)O1`, the melting point was determined as 192 °C.

Turning to `Cc1ccc(-c2nnc(N3CCC(CO)CC3)nc2-c2ccc(C)cc2)cc1`, the melting point lay in the range of 152 to 154 °C.

Take `COc1ccc2nc(C)cc(-n3cncn3)c2c1`: the melting point was in the range of 117 to 118 °C.

Compound `CC(C)(C)C(=O)C(C(O)C(Cl)(Cl)Cl)n1cncn1` (stereo not given) had a melting point of 220 to 222 °C.

The compound `Cc1ccc(S(=O)(=O)NCCC(C(=O)NO)C2(CC(C)C)CCN(CCc3ccccc3)C2=O)cc1` (stereo not given) yielded a melting point of 166 to 167 °C.

As for `CC(C)(C)OC(=O)COc1ccc(-c2c(Cl)c(CN3C(=O)CCC3=O)nc3sc4c(c23)CCS(=O)(=O)C4)cc1`, the melting point was 204 to 205 °C.

For the compound `COc1cc(CCC=CC(C)=O)ccc1OCc1ccccc1`, the melting point lay within 59.5 to 60.5 °C.

With `CC(=O)NCC=C1CCc2c(Cl)cc3nn(C)cc3c21`, the melting point was in the range of 177 to 178 °C.

For `CN(C(=O)COc1cc(-c2ccccc2)nc2ccccc12)c1ccccc1`, the melting point amounted to 150 °C.

The compound `Cc1cc2c(cc1C(F)(F)F)NC(=O)CC(c1cccc(-c3ncoc3C)c1)=N2` came in with a melting point of 241 to 242 °C.

In turn, `CN(c1cc(OC(F)(F)F)cc2cc(C3=NCC(CC(=O)O)S3)[nH]c12)S(=O)(=O)c1cccs1` (stereo not given) came in with a melting point of 225 to 227 °C.

The compound `N#Cc1c(-c2cccc(N)c2)cc(-c2ccccc2O)nc1NC(=O)C1CCCCC1` came in with a melting point of 236 to 238 °C.

The compound `CC1(C2C(=O)N(CC(F)(F)F)c3ccccc32)OCCO1` (stereo not given) had a melting point of 87 to 89 °C.

Compound `COc1ccc2c(c1)C(C)(N1C(=O)c3ccccc3C1=O)C(=O)N2c1ccc(F)cc1` (stereo not given) showed a melting point of 207 to 208 °C.

As to `CC/C(=C\C#CC(O)(C(F)(F)F)C(F)(F)F)c1cccc(CCc2ccc(CO)c(CO)c2)c1`, the melting point was 123 °C.

Consider `C=C(CCCCCCCCCCCCCCCC)CC(CO)COCCCCCCCCCCCCCCCC` (stereo not given), for which the melting point was in the range of 37 to 38 °C.

`Nc1ccc(Oc2ccc(Oc3ccc(S(=O)(=O)c4ccc(Oc5ccc(Oc6ccc(N)cc6)cc5)cc4)cc3)cc2)cc1`: the melting point lay in the range of 212 to 214 °C.

For `CCCCCCCCCCCCNC(=O)c1cc(Br)c(OCCn2cnnn2)c(-c2cccc(C(F)(F)F)c2)c1`, the melting point is 91.5 to 92.6 °C.

`NCCc1cccc(N2C(=O)N(c3cc(Cl)ccc3Cl)Cc3cnc(Nc4ccccc4)nc32)c1` returned a melting point of 120 to 123 °C.

Compound `O=C1CCC(Nc2ccc3[nH]c(=O)c(C(=O)O)cc3c2)N1` (stereo not given) registered a melting point of more than 300 °C.

Turning to `COc1ccc(C=O)c(Br)c1`, the melting point fell in the range of 73 to 74 °C.

In the case of `O=C1CCCC2=C1C(c1cccc(Br)c1)C1=C(CCCC1)N2` (stereo not given), the melting point is 258 to 260 °C.

`CS(=O)(=O)c1cc(Br)ccc1C(=O)O` came in with a melting point of 220 °C.

In turn, `NNC(=S)Nc1ccc2ccccc2c1` displayed a melting point of 174 to 176 °C.

For the compound `O=C(Nc1nnn[nH]1)c1ccc(OCCn2ccnc2)cc1`, the melting point is 263 °C.

`Cc1[nH]c2ncnc(Nc3cccc(Cl)c3)c2c1C` came in with a melting point of 239 to 240 °C.

As to `COc1ccc(N2CCN(c3c(C)c(C)c4c(c3C)CC(C)(CN3CCC(=O)CC3)O4)CC2)cc1` (stereo not given), the melting point fell in the range of 123 to 127 °C.

The compound `O=S1(=O)c2ccccc2Nc2c1c(O)c(O)c1ccccc21` had a melting point of 330 °C.

For the compound `COc1ccc([C@@H]2Sc3cc(Oc4ccc(F)cc4)ccc3NC(=O)[C@@H]2O)cc1`, the melting point is 198 to 200 °C.

On to `COc1ccc(C(=O)OC2C=C(C)C(=O)CC(C)(C)C2O)cc1OC` (stereo not given), for which the melting point fell in the range of 161 to 164 °C.

Consider `CCN(CC)CC1(C(F)(F)F)c2cc(Cl)ccc2Nc2ncccc21` (stereo not given), for which the melting point is 115 to 117 °C.

For `COc1cc(OCCN2CCN(C)CC2)ccc1/C=C/c1cc(/C=C/c2ccc3cc[nH]c3c2)n[nH]1`, the melting point lay within 134 to 142 °C.

For the compound `COC(=O)N1CCc2ccc(N)cc2CC1`, the melting point fell in the range of 100 to 104 °C.

The compound `CCOc1ccccc1C(=O)SSc1ccc([N+](=O)[O-])cc1C(Cl)(Cl)Cl` had a melting point of 79 to 80 °C.

For orientation: melting point means the temperature, or range, at which the solid turns liquid.
